Experimental data: paper PMC8981703 (BMC Medicine, 2022)

Key:
[1] = test system: Chinese patients with RRMM; assay: MARCH: safety (TEAEs, CTCAE version 4.03), exposure, dose modification, disposition; type: in vivo
Method: (§1) Response assessment was performed every 28 days on day 1 of each cycle. Adverse event (AE) was assessed using the NCI Common Terminology Criteria for Adverse Events (CTCAE) version 4.03. […] Plasma concentrations were determined at the following distinct time points: pre-dose, 0.5 h, 1 h, 1.5 h, 2 h, 3 h, 4 h, 5 h, 6 h, 8 h, 10 h, 24 h, and 48 h. Pharmacokinetics ethnicity sensitivity analysis was performed to evaluate the potential impact of ethnic factors on the acceptability and difference in the data of Chinese and western patients.
Patients who received at least 1 dose of study treatment (modified intent-to-treat [mITT]/safety population) were used for efficacy and safety analysis. Demographics, baseline disease characteristics, and prior anti-MM therapies were summarized for the mITT populations. For the primary analysis of ORR, the primary endpoint, the sample size of 82 patients would provide 80% power to detect a statistical significance with the target ORR of 28% against the threshold ORR (i.e., null hypothesis) of 15% (one-sided α=0.025); statistical significance would be declared if the lower bound of the 95% confidence interval (CI) would be greater than 15%. Time to event endpoints including PFS, OS, and DOR were analyzed using the Kaplan-Meier method.

clinical = type: in vivo, human; settings: plasma
Method: as §1
PK parameters were obtained by analyzing adequate plasma drug concentration data and calculated using the NCA model with Phoenix WinNonlin v8.3.1. The descriptive statistics of PK parameters were summarized using SAS 9.4.

O=C(/C=C\n1cnc(-c2cc(C(F)(F)F)cc(C(F)(F)F)c2)n1)NNc1cnccn1 [selinexor, Selinexor]
median number of dose reductions ([1]; among the patients with dose reductions): 2
median time to the first dose reduction ([1]; in vivo): 22.0 days
patients with a reduction to 80 mg weekly ([1]; in vivo): 20.7%
patients with a reduction to 100–120 mg weekly ([1]; in vivo): 40.2%
patients with dose interruptions ([1]; in vivo): 75.6%
patients with dose reductions ([1]; in vivo): 84.1%
Tmax (clinical; human, po, 80 mg, single dose selinexor 80 mg oral, C1D1, read-out: median T max): 2.88 h
AUC(0-t) (clinical; human, po, 80 mg, read-out: mean AUC0–48h): 5800 ng·h/mL
Cmax (clinical; human, po, 80 mg, read-out: mean C max): 862 ng/mL
half-life (clinical; human, po, 80 mg, read-out: mean t 1/2 (converted)): 6 h
median T max (clinical; single dose selinexor 80 mg oral, C1D1): 3 h
